From patent publication US9884839B2, “Inhibitors of 17Beta-hydroxysteroid dehydrogenases type 1 and type 2” (ElexoPharm GmbH, priority 2014, dated 2018)
Like-named read-outs stand apart in the source and are kept apart here.

Assays:
mouse 17β-HSD1 = target: T1, mouse 17β-HSD1 (Mus musculus, UniProt P51656); experiment: Inhibition of mouse 17β-HSD1 (recombinant, HEK293 lysate); assay type: biochemical; conditions: for IC50: read-out: IC50 m17β-HSD1
T1 construct: made in house; host or cells: HEK293 cells, transient transfection; 1,000 g supernatant of the cell lysate
T1 sequence (P51656 1-344): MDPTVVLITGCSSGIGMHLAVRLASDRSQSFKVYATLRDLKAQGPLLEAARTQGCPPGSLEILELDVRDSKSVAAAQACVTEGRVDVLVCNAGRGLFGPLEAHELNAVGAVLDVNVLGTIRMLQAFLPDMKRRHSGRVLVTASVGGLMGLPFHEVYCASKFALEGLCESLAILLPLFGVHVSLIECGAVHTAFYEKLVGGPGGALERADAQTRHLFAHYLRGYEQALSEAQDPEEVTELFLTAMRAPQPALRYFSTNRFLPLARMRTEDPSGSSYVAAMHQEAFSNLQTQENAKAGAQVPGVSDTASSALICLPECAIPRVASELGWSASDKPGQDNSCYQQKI

human 17β-HSD1 = target: T2, human 17β-HSD1 (Homo sapiens, UniProt P14061); experiment: Inhibition of human 17β-HSD1 (conversion of [3H]-E1 to E2, HPLC radioflow detection); assay type: biochemical; conditions: for IC50: read-out: IC50 [nM] h17β-HSD1; for inhibition at 1 µM: read-out: % inhibition h17β-HSD1 @ 1 μM
T2 construct: For the partial purification of 17β-HSD1, the cytosolic fraction was precipitated with ammonium sulfate; from tissue; host or cells: human placenta, cytosolic fraction, ammonium sulfate precipitate
T2 sequence (P14061 1-328): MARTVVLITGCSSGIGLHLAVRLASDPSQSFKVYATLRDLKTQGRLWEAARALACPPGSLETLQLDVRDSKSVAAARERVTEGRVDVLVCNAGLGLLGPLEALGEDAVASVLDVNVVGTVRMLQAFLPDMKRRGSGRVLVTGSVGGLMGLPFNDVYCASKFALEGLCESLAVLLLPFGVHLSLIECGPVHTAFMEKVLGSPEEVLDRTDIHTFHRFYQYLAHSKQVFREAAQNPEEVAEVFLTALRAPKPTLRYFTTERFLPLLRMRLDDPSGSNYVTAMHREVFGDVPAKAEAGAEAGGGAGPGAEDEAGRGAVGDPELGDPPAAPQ

mouse 17β-HSD2 = target: T3, mouse 17β-HSD2 (Mus musculus, UniProt P51658); experiment: Inhibition of mouse 17β-HSD2 (liver microsomal fraction); assay type: biochemical; conditions: for inhibition at 0.1 µM: read-out: % inhibition m17β-HSD2 @ 100 nM; for IC50: read-out: IC50 m17β-HSD2; for inhibition at 0.05 µM: read-out: % inhibition m17β-HSD2 @ 50 nM
T3 construct: The pellet fractions containing the microsomal 17β-HSD2 were used for the determination of E1 formation; from tissue; host or cells: mouse liver, microsomal fraction
T3 sequence (P51658 1-381): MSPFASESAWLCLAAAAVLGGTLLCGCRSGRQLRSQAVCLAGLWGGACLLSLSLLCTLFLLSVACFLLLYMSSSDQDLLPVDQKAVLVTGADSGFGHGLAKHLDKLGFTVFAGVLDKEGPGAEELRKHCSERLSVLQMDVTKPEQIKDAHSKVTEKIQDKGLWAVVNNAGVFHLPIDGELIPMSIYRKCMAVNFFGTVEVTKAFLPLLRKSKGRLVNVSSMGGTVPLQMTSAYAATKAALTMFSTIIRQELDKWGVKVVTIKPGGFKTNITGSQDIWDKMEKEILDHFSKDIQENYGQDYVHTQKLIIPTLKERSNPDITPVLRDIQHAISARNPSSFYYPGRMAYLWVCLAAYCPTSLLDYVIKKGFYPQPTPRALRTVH

human 17β-HSD2 = target: T4, human 17β-HSD2 (Homo sapiens, UniProt P37059); experiment: Inhibition of human 17β-HSD2 (conversion of [3H]-E2 to E1); assay type: biochemical; conditions: for inhibition at 1 µM: read-out: % inhibition h17β-HSD2 @ 1 μM
T4 construct: 17β-HSD2 was obtained from the microsomal fraction; from tissue; host or cells: human placenta, microsomal fraction
T4 sequence (P37059 1-387): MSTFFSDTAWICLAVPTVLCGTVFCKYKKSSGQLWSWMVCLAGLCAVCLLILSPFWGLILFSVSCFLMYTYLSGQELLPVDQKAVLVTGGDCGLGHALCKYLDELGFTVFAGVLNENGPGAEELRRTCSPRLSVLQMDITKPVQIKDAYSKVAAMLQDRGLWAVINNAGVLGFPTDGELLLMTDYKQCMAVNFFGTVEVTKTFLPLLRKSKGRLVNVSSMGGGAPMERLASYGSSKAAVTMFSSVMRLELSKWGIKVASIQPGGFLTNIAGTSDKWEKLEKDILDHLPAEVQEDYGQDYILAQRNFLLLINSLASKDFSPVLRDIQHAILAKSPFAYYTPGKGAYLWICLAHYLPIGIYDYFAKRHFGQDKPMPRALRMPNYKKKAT

in vitro = conditions: human, pooled human liver S9 fraction
[1] = read-out: Inhibition @ 1 μM m17β-HSD1
[2] = read-out: Inhibition @ 1 μM m17β-HSD2
[3] = human placental cytosolic enzyme, E1 500 nM, NADH, Tables 1, 4-11
[4] = read-out: % inhibition m17β-HSD1 @ 1 μM
[5] = read-out: % inhibition m17β-HSD2 @ 1 μM
[6] = recombinant mouse enzyme, E1 10 nM, NADPH

Compound | inhibition at 1 µM (mouse 17β-HSD1; [1]) | inhibition at 1 µM (mouse 17β-HSD2; [2]) | IC50 (human 17β-HSD2; read-out: IC50 [nM] h17β-HSD2) | IC50 (human 17β-HSD1; [3]) | further results
COc1c(Cl)cc(-c2ccc(C(=O)c3c(F)ccc(O)c3F)s2)cc1CN1CCN(C(C)=O)CC1 [Compound 28, 1-(4-{3-Chloro-5-[5-(2,6-difluoro-3-hydroxy-benzoyl)-thiophen-2-yl]-2-methoxy-benzyl}-piperazin-1-yl)-ethanone] | 37% | 45% | 21 nM | – | IC50 (human 17β-HSD1): 1.4 nM
COc1c(Cl)cc(-c2ccc(C(=O)c3c(F)ccc(OC(C)=O)c3F)s2)cc1Cn1ccnn1 [Compound 31a, Acetic acid 3-[5-(3-chloro-4-methoxy-5-[1,2,3]triazol-1-ylmethyl-phenyl)-thiophene-2-carbonyl]-2,4-difluoro-phenylester] | 20% | – | – | – | inhibition at 1 µM (human 17β-HSD1): 28%; inhibition at 1 µM (human 17β-HSD2): 32%
COc1c(C)cc(-c2ccc(C(=O)c3cc(F)c(F)c(O)c3F)s2)cc1C [Compound 46, (5-(4-Methoxy-3,5-dimethylphenyl)thiophen-2-yl)(2,4,5-trifluoro-3-hydroxyphenyl)methanone] | 13.4% | – | 2.3 nM | 1.2 nM | inhibition at 0.1 µM (mouse 17β-HSD2): 16%
O=C(c1cccc(O)c1)c1ccc(-c2ccc(O)c(Cl)c2)s1 [D, reference compound] | – | – | – | 5 nM | inhibition at 1 µM (mouse 17β-HSD1; [4]): 42%; inhibition at 1 µM (mouse 17β-HSD2; [5]): 9%; IC50 (human 17β-HSD2): 240 nM
O=C(c1ccc(-c2cc(Cl)c(O)c(Cl)c2)s1)c1cc(F)c(F)c(O)c1F [Compound 49, (5-(3,5-Dichloro-4-hydroxyphenyl)thiophen-2-yl)(2,4,5-trifluoro-3-hydroxyphenyl)methanone] | 13.8% | – | 11.2 nM | 9.1 nM | –
NC(=O)c1cccc(-c2ccc(C(=O)c3cc(F)c(F)c(O)c3F)s2)c1 [Compound 44, 3-(5-(2,4,5-Trifluoro-3-hydroxybenzoyl)thiophen-2-yl)benzamide] | – | – | 6.8 nM | 22.4 nM | inhibition at 0.1 µM (mouse 17β-HSD1; read-out: % inhibition m17β-HSD1 @ 100 nM, compound 100 nM): 10%; inhibition at 0.1 µM (mouse 17β-HSD2): 19%
Cc1cc(-c2ccc(C(=O)c3cccc(O)c3C)s2)cc(C)c1O [G, reference compound] | – | – | 239 nM | 899 nM | IC50 (mouse 17β-HSD1; Table 7, unit μM): 35.5 µM; IC50 (mouse 17β-HSD2): 546 nM
O=C(c1ccc(Br)s1)c1cc(F)c(F)c(O)c1F [Compound 1g, (5-Bromo-thiophen-2-yl)-(2,4,5-trifluoro-3-hydroxy-phenyl)-methanone] | 11% | 44% | 27 nM | 130 nM | inhibition at 1 µM (mouse 17β-HSD1; [4]): 11%; inhibition at 1 µM (mouse 17β-HSD2; [5]): 44%
COc1ccc(-c2sc(C(=O)c3c(F)ccc(O)c3F)cc2C)cc1Cl [Compound 13, [5-(3-Chloro-4-methoxy-phenyl)-4-methyl-thiophen-2-yl]-(2,6-difluoro-3-hydroxy-phenyl)-methanone] | 25% | 65% | 52 nM | 5.5 nM | –
O=C(c1ccc(-c2cc(F)c(OC(F)F)c(F)c2)s1)c1c(F)ccc(O)c1F [Compound 17, (2,6-Difluoro-3-hydroxy-phenyl)-[5-(4-difluoromethoxy-3,5-difluoro-phenyl)-thiophen-2-yl]-methanone] | 47% | 74% | 36 nM | 7 nM | –
O=C(c1ccc(-c2cccc(CO)c2)s1)c1cc(F)c(F)c(O)c1F [Compound 47, (5-(3-(Hydroxymethyl)phenyl)thiophen-2-yl)(2,4,5-trifluoro-3-hydroxyphenyl)methanone] | 13.8% | – | 4.4 nM | 5.9 nM | IC50 (mouse 17β-HSD2): 260 nM
O=C(c1ccc(-c2ccc(O)c(F)c2)s1)c1cc(F)c(F)c(O)c1F [Compound 42, (5-(3-Fluoro-4-hydroxyphenyl)thiophen-2-yl)(2,4,5-trifluoro-3-hydroxyphenyl)methanone] | 46% | 84% | 3 nM | 2.5 nM | –
O=C(c1ccc(-c2ccc3cc[nH]c3c2)s1)c1cc(F)c(F)c(O)c1F [Compound 43, (5-(1H-Indol-6-yl)thiophen-2-yl)(2,4,5-trifluoro-3-hydroxyphenyl)methanone] | – | – | 7.5 nM | 28.8 nM | IC50 (mouse 17β-HSD1; [6]): 1.14 µM; IC50 (mouse 17β-HSD2): 113 nM
Cc1c(O)cccc1C(=O)c1ccc(-c2ccc(F)cc2F)s1 [B, reference compound] | – | – | 300 nM | 3430 nM | inhibition at 1 µM (mouse 17β-HSD1; [4]): 5%; inhibition at 1 µM (mouse 17β-HSD2; [5]): 18%
Cc1c(O)cccc1C(=O)c1ccc(-c2ccc(O)c(Cl)c2)s1 [E, reference compound] | – | – | – | – | inhibition at 1 µM (mouse 17β-HSD1; [4]): 14%; inhibition at 1 µM (human 17β-HSD1): 76%; inhibition at 1 µM (mouse 17β-HSD2; [5]): 92%; inhibition at 1 µM (human 17β-HSD2): 93%
COc1c(Cl)cc(-c2ccc(C(=O)c3cc(F)c(F)c(O)c3F)s2)cc1Cl [Compound 45, (5-(3,5-Dichloro-4-methoxyphenyl)thiophen-2-yl)(2,4,5-trifluoro-3-hydroxyphenyl)methanone] | – | – | 2.6 nM | 0.6 nM | IC50 (mouse 17β-HSD1; [6]): 1.73 µM; IC50 (mouse 17β-HSD2): 89 nM; half-life at 1 µM (in vitro): 15 min
O=C(c1ccc(-c2cncc(F)c2)s1)c1cc(F)c(F)c(O)c1F [Compound 39, [5-(5-Fluoro-pyridin-3-yl)-thiophen-2-yl]-(2,4,5-trifluoro-3-hydroxy-phenyl)-methanone] | 9% | 24% | 18 nM | 59 nM | –
O=C(c1ccc(-c2cccc(Cl)c2O)s1)c1c(F)ccc(O)c1F [Compound 22, [5-(3-Chloro-2-hydroxy-phenyl)-thiophen-2-yl]-(2,6-difluoro-3-hydroxy-phenyl)-methanone] | 46% | 82% | 29 nM | – | IC50 (human 17β-HSD1): 27 nM
Cc1cc(-c2ccc(C(=O)c3cc(F)cc(O)c3C)s2)cc(C)c1O [Compound 71, (5-(4-Hydroxy-3,5-dimethylphenyl)thiophen-2-yl)(5-fluoro-3-hydroxy-2-methylphenyl)methanone] | – | – | 50 nM | 12.6 nM | % inhibition m17β-HSD2 @ 50 nM (mouse 17β-HSD2; 0.05 µM): 79% @ 50 nM; inhibition at 0.05 µM (mouse 17β-HSD2): 79%
COc1cccc(-c2ccc(C(=O)c3cc(F)c(F)c(O)c3F)s2)c1 [Compound 52, (5-(3-Methoxyphenyl)thiophen-2-yl)(2,4,5-trifluoro-3-hydroxyphenyl)methanone] | – | – | – | – | inhibition at 0.01 µM (human 17β-HSD1; read-out: % inhibition h17β-HSD1 @ 10 nM): 75%; inhibition at 0.05 µM (mouse 17β-HSD2): 15%; inhibition at 0.01 µM (human 17β-HSD2; read-out: % inhibition h17β-HSD2 @ 10 nM): 47%
O=C(c1ccc(-c2cccnc2)s1)c1c(F)ccc(O)c1F [Compound 9, (2,6-Difluoro-3-hydroxy-phenyl)-(5-pyridin-3-yl-thiophen-2-yl)-methanone] | 14% | 23% | – | – | inhibition at 1 µM (human 17β-HSD1): 57%; inhibition at 1 µM (human 17β-HSD2): 64%
